The source of these data is patent US20110160121A1, “UNACYLATED GHRELIN AND ANALOGS AS THERAPEUTIC AGENTS FOR VASCULAR REMODELING IN DIABETIC PATIENTS AND TREATMENT OF CARDIOVASCULAR DISEASE” (ALIZE PHARMA SAS, priority 2008, published 2011).

Assay [1] concerns p53, p21, pRb. The assay can be described thus: Western blot of p53, p21 and phospho-Rb in cultured CAC. The following applies: induced by AGE in cultured CAC; FIG. 2B. In kind it is cell-based, human. An excerpt:
To this end, the effect of AGE treatment, alone or in combination with UAG, was first evaluated on SA-β-gal activity. […] In addition, AGE-induced p53 accumulation and senescent like-growth arrest were prevented by silencing p53 (FIG. 2C).
(§1) Western Blot Analysis—CAC from healthy donors cultured in the presence of UAG, in combination or not with AGE, and CAC recovered from diabetic patients treated with saline or UAG were lysed. Protein concentration was detected as previously described (Ref. 24). 50 μg of proteins were separated on SDS-polyacrylamide gels and transferred to nitrocellulose membranes. Reaction with anti-p53, anti p21 and anti-phospho-Rb antibodies and detection with an enhanced chemiluminescence detection system (Amersham Biosciences) were performed as described previously (Ref. 20).
On the technique in general: In western blotting, separated proteins are transferred to a membrane and probed.

The next assay relates to CAC. Kind of assay: CAC mobilization assay in diabetic mice (NOD/SCID, ob/ob). In kind it is in vivo, mouse. Particulars: FIG. 4B. On the procedure: To further confirm data obtained by treating patients and healthy controls with UAG, two different mouse models of diabetes were used. NOD/SCID mice and ob/ob mice were treated for different time intervals with saline or UAG. The person skilled in the art will be familiar with the NOD/SCID mice and ob/ob mice models.
After treatment, cells were recovered, assayed by FACS analysis, counted and cultured. […] Black lines refer to preimmune IgG used as negative control and grey lines refer to surface marker expression. Similar results were obtained when CAC from untreated diabetic mice as well as untreated or treated wild-type mice were analyzed (data not shown).
Diabetic and control mice—Mice were divided in four groups. The plasma glucose and insulin determination for each group are reported. Sixteen 6 weeks old ob/ob mice (blood glucose, 600±45 mg/dL, insulin, 5.5±0.9 ng/ml); sixteen C56BL6/J wild type mice (blood glucose, 150±18.2 mg/dL, insulin, 1±0.05 ng/ml); ten 7 weeks old NOD/SCID mice (blood glucose, 164±12.9 mg/dL, insulin 1.2±.0.12 ng/ml); ten 17 weeks old NOD/SCID mice (blood glucose, 536±36.3 mg/dL, insulin 4.85±0.74 ng/ml). Animal procedures conformed to the Guide for Care and Use of […] (National Institutes of Health publication no. […], revised 1985).
Mobilization assay—Mice were treated for 12 hours with UAG or saline. CAC recovered and purified as above described, were put in culture and counted by three independent investigators. The technical ratio of CAC was calculated by comparing the numbers of CAC/μL of blood drawn from left ventricular.

Assay [2] concerns p53, p21, pRb. Kind of assay: Western blot of p53, p21, phospho-Rb in CAC recovered from UAG-treated diabetic patients. Also on record: species or system human. Particulars: type 2 diabetic patients, UAG administered in vivo, CAC recovered after 12 hours; FIG. 2E. On the procedure:
After 12 hours of treatment, CAC were recovered from UAG treated and untreated patients and cultured.
All the subjects underwent the following testing session: • UAG (3.0 μg/kg/h iv. as infusion for 12 h from 0 to 12 hours); • isotonic saline (infusion from 0 to 12 hours).
as §1

Where no end group is shown, it is not given here.

As to “1-NH2Gly-Ser-Ser-Phe-Leu-Ser-Pro-Glu-His-Gln-Arg-Val-Gln-Gln-Arg-Lys-Glu-Ser-Lys-Lys-Pro-Pro-Ala-Lys-Leu-Gln-Pro-Arg-28 (H-GSSFLSPEHQRVQQRKESKKPPAKLQPR; ends and bridges not checked; listed as Homo sapiens) [UAG]”, in the assay with p53, p21, pRb [1], the “p53 accumulation, p21 expression and phosphorylation of Rb” value is “prevented p53 accumulation, p21 expression and phosphorylation of Rb induced by AGE”. For the same substance, the “number of CAC relative to untreated wild type mice” value in the assay on CAC (UAG-treated ob/ob mice vs untreated wild type mice) is recorded as “fully restores the number of CAC to normal physiological levels”. The “percentage of recovered cells (CAC)” value with CAC (diabetic NOD/SCID mice) is “increase the percentage of recovered cells”. Further, the “number of circulating CAC” value with CAC (ob/ob mice) is reported as “increased number of circulating CAC”. The “p53 accumulation, phosphorylation of Rb and p21 expression” value with p53, p21, pRb [2] was “prevented p53 accumulation, phosphorylation of Rb and p21 expression”.
